# In patent US11000033B2, “Ketone or oxime compound, and herbicide” (NISSAN CHEMICAL CORPORATION, priority 2014, dated 2021):
# What was measured:
# Type in all cases: in vivo
# Monochoria vaginalis [1] = test: Test Example 2: herbicidal activity, application during weed generation in submerged conditions (symbol C); conditions: Table 23; application herbicide amount 320 g/ha; grade 0-5 by criteria of Test Example 1
# Outline: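 Paddy pot test, submerged (4 cm water), alluvial soil, mixed sowing; greenhouse 25–30° C. Emulsion formulation diluted to predetermined rate, applied onto floodwater at 1–2 leaf stage. Visual herbicidal rating at 3 wk post-treatment.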
# Apera spica-venti = test: Test Example 5: herbicidal effect by foliage application, plastic box (symbol L); conditions: 320 g/ha, 3 weeks after application
# Outline: (§1)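 Emulsion formulation, diluted with water to the intended rate, was applied uniformly to leaves by small sprayer. Recipients were 14-day greenhouse-grown seedlings (25° C. to 30° C.). Assessment followed at 3 weeks.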
# Setaria viridis = test: Test Example 5: herbicidal effect by foliage application, plastic box (symbol G); conditions: 320 g/ha, 3 weeks after application
# Outline: as §1
# soybean = test: Test Example 4: effect on crop by soil treatment (symbol d); conditions: application herbicide amount 320 g/ha
# Outline: (§2)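 Soil-treatment setup: crop and weed seeds were spot-sown into sterilized diluvial soil, then buried beneath approximately 1.5 cm of it, and the boxes were housed in a 25–30° C. greenhouse.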
# rice = test: Test Example 4: effect on crop by soil treatment (symbol b); conditions: application herbicide amount 320 g/ha
# Outline: as §2
# [2] = test system: Echinochloa oryzacola Vasing.; test: Test Example 1: herbicidal activity, application before weed generation in submerged conditions (symbol A); conditions: application herbicide amount 320 g/ha
# Outline: (§3)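 Weed control was rated three weeks after treatment on a 0–5 scale, from 5% or lower up to 90% or more. Pre-emergence water-surface application of diluted emulsion at a predetermined rate was made on the day of sowing, in flooded (4 cm water) pots containing rice seedlings, kept at 25–30 °C under glass.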
# Avena fatua [3] = test: Test Example 4: herbicidal effect by soil treatment (symbol I); conditions: application herbicide amount 320 g/ha
# Outline: (§4)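 Seeds were sown in sterilized diluvial soil, covered with about 1.5 cm of soil, and the soil surface was sprayed with a water-diluted emulsion of the compound at a predetermined rate. Plants grew in a greenhouse at 25° C. to 30° C.; effects were scored visually 3 weeks after application.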
# [4] = test system: Echinochloa crus-galli var. crus-galli; test: Test Example 4: herbicidal effect by soil treatment (symbol H); conditions: application herbicide amount 320 g/ha
# Outline: as §4
# Monochoria vaginalis [5] = test: Test Example 1: herbicidal activity, application before weed generation in submerged conditions (symbol C); conditions: application herbicide amount 320 g/ha
# Outline: as §3
# Avena fatua [6] = test: Test Example 5: herbicidal effect by foliage application, plastic box (symbol I); conditions: 320 g/ha, 3 weeks after application
# Outline: as §1
# rapeseed = test: Test Example 5: effect on crop by foliage application, plastic box (symbol g); conditions: 320 g/ha, 3 weeks after application
# Outline: (§5)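 Sterilized diluvial soil, plastic box (21 × 13 × 7 cm); spot sowing, ~1.5 cm soil cover; greenhouse 25–30° C.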
# beet = test: Test Example 4: effect on crop by soil treatment (symbol f); conditions: application herbicide amount 320 g/ha
# Outline: as §2
# Abutilon theophrasti = test: Test Example 4: herbicidal effect by soil treatment (symbol M); conditions: application herbicide amount 320 g/ha
# Outline: as §4
# corn = test: Test Example 5: effect on crop by foliage application, plastic box (symbol c); conditions: 320 g/ha, 3 weeks after application
# Outline: as §5
# [7] = test system: Echinochloa crus-galli var. crus-galli; test: Test Example 5: herbicidal effect by foliage application, plastic box (symbol H); conditions: 320 g/ha, 3 weeks after application
# Outline: as §1
Compound,"Herbicidal effect grade, C: Monochoria vaginalis (Monochoria vaginalis [1])","L: Apera spica-venti, herbicidal effect (criteria of Test Example 1) (Apera spica-venti)","G: Setaria viridis, herbicidal effect (criteria of Test Example 1) (Setaria viridis)","Effect on crop grade, d: soybean (soybean)","Effect on crop grade, b: directly sowed rice plant (rice)","Herbicidal effect grade, A: Echinochloa oryzacola Vasing. [2]","Herbicidal effect grade, I: Avena fatua (Avena fatua [3])","Herbicidal effect grade, H: Echinochloa crus-galli var. crus-galli [4]","Herbicidal effect grade, C: Monochoria vaginalis (Monochoria vaginalis [5])","I: Avena fatua, herbicidal effect (criteria of Test Example 1) (Avena fatua [6])","g: rapeseed, effect on crop (criteria of Test Example 1) (rapeseed)","Effect on crop grade, f: beet (beet)","Herbicidal effect grade, M: Abutilon theophrasti (Abutilon theophrasti)","c: corn, effect on crop (criteria of Test Example 1) (corn)","H: Echinochloa crus-galli var. crus-galli, herbicidal effect (criteria of Test Example 1) [7]",further results
CON=C(C)CC1CC(OC(=O)N2CCOCC2)=C(c2c(C)cc(C)cc2OC)C1=O (stereo not drawn) [6-094],1 (Herbicidal ratio of 5% or higher and lower than 20%),5 (Herbicidal ratio of 90% or more (almost completely withered)),5 (Herbicidal ratio of 90% or more (almost completely withered)),0 (Herbicidal ratio of 5% or lower (almost no effect)),5 (Herbicidal ratio of 90% or more (almost completely withered)),5 (Herbicidal ratio of 90% or more (almost completely withered)),5 (Herbicidal ratio of 90% or more (almost completely withered)),5 (Herbicidal ratio of 90% or more (almost completely withered)),3 (Herbicidal ratio of 40% or higher and lower than 70%),5 (Herbicidal ratio of 90% or more (almost completely withered)),4 (Herbicidal ratio of 70% or higher and lower than 90%),0 (Herbicidal ratio of 5% or lower (almost no effect)),4 (Herbicidal ratio of 70% or higher and lower than 90%),5 (Herbicidal ratio of 90% or more (almost completely withered)),5 (Herbicidal ratio of 90% or more (almost completely withered)),
CON=C(C)CC1CC(O)=C(c2c(C)cc(-c3ccc(Cl)cc3F)cc2C)C1=O (stereo not drawn) [6-084],0 (Herbicidal ratio of 5% or lower (almost no effect)),5 (Herbicidal ratio of 90% or more (almost completely withered)),5 (Herbicidal ratio of 90% or more (almost completely withered)),,,5 (Herbicidal ratio of 90% or more (almost completely withered)),,,0 (Herbicidal ratio of 5% or lower (almost no effect)),5 (Herbicidal ratio of 90% or more (almost completely withered)),4 (Herbicidal ratio of 70% or higher and lower than 90%),,,0 (Herbicidal ratio of 5% or lower (almost no effect)),5 (Herbicidal ratio of 90% or more (almost completely withered)),"d: soybean, effect on crop grade (soybean): 5 (Herbicidal ratio of 90% or more (almost completely withered)); b: directly sowed rice plant, effect on crop grade (rice): 2 (Herbicidal ratio of 20% or higher and lower than 40%); I: Avena fatua, herbicidal effect grade (Avena fatua [3]): 5 (Herbicidal ratio of 90% or more (almost completely withered)); H: Echinochloa crus-galli var. crus-galli, herbicidal effect grade [4]: 5 (Herbicidal ratio of 90% or more (almost completely withered)); f: beet, effect on crop grade (beet): 0 (Herbicidal ratio of 5% or lower (almost no effect)); M: Abutilon theophrasti, herbicidal effect grade (Abutilon theophrasti): 0 (Herbicidal ratio of 5% or lower (almost no effect))"
CON=C(C)CC1CC(O)=C(c2c(F)cc(-c3ccccc3)cc2OC)C1=O (stereo not drawn) [6-107],5 (Herbicidal ratio of 90% or more (almost completely withered)),5 (Herbicidal ratio of 90% or more (almost completely withered)),5 (Herbicidal ratio of 90% or more (almost completely withered)),0 (Herbicidal ratio of 5% or lower (almost no effect)),5 (Herbicidal ratio of 90% or more (almost completely withered)),5 (Herbicidal ratio of 90% or more (almost completely withered)),3 (Herbicidal ratio of 40% or higher and lower than 70%),5 (Herbicidal ratio of 90% or more (almost completely withered)),5 (Herbicidal ratio of 90% or more (almost completely withered)),5 (Herbicidal ratio of 90% or more (almost completely withered)),4 (Herbicidal ratio of 70% or higher and lower than 90%),1 (Herbicidal ratio of 5% or higher and lower than 20%),4 (Herbicidal ratio of 70% or higher and lower than 90%),5 (Herbicidal ratio of 90% or more (almost completely withered)),5 (Herbicidal ratio of 90% or more (almost completely withered)),
CON=C(C)CC1CC(O)=C(c2c(C)cc(-c3ccc(Cl)cc3Cl)cc2C)C1=O (stereo not drawn) [6-088],0 (Herbicidal ratio of 5% or lower (almost no effect)),5 (Herbicidal ratio of 90% or more (almost completely withered)),5 (Herbicidal ratio of 90% or more (almost completely withered)),5 (Herbicidal ratio of 90% or more (almost completely withered)),0 (Herbicidal ratio of 5% or lower (almost no effect)),4 (Herbicidal ratio of 70% or higher and lower than 90%),5 (Herbicidal ratio of 90% or more (almost completely withered)),5 (Herbicidal ratio of 90% or more (almost completely withered)),0 (Herbicidal ratio of 5% or lower (almost no effect)),5 (Herbicidal ratio of 90% or more (almost completely withered)),4 (Herbicidal ratio of 70% or higher and lower than 90%),0 (Herbicidal ratio of 5% or lower (almost no effect)),3 (Herbicidal ratio of 40% or higher and lower than 70%),2 (Herbicidal ratio of 20% or higher and lower than 40%),5 (Herbicidal ratio of 90% or more (almost completely withered)),
CON=C(C)CC1CC(OC(=O)N2CCOCC2)=C(c2c(C)cc(-c3ccc(Cl)cc3F)cc2C)C1=O (stereo not drawn) [6-089],3 (Herbicidal ratio of 40% or higher and lower than 70%),5 (Herbicidal ratio of 90% or more (almost completely withered)),,0 (Herbicidal ratio of 5% or lower (almost no effect)),0 (Herbicidal ratio of 5% or lower (almost no effect)),5 (Herbicidal ratio of 90% or more (almost completely withered)),0 (Herbicidal ratio of 5% or lower (almost no effect)),1 (Herbicidal ratio of 5% or higher and lower than 20%),3 (Herbicidal ratio of 40% or higher and lower than 70%),5 (Herbicidal ratio of 90% or more (almost completely withered)),4 (Herbicidal ratio of 70% or higher and lower than 90%),0 (Herbicidal ratio of 5% or lower (almost no effect)),0 (Herbicidal ratio of 5% or lower (almost no effect)),,,
